The supplement of paper PMC12317010
Counter-ions that a name gives are not always drawn.

Test: collision cross section in nitrogen (drift tube, single-field); higher = larger gas-phase ion size
[1] = ion type: [M+Na], ion source: ESI, ion mode: Positive
[2] = ion type: [M-H], ion source: ESI, ion mode: Negative
[3] = ion type: [M+H], ion source: APCI, ion mode: Positive
[4] = ion type: [M+H], ion source: ESI, ion mode: Positive
[5] = ion type: [M+], ion source: APCI, ion mode: Positive
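Also: chemical standards at 10 µM analysed by drift tube IMS-QTOF MS in about 3.95 torr nitrogen, mean of duplicate injections differing ≤1%, mass error below 10 ppm.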

SMILES | collision cross section in nitrogen [1] [Å²] | collision cross section in nitrogen [2] [Å²] | collision cross section in nitrogen [4] [Å²] | other results
CC(C)N(C(=O)COc1nnc(C(F)(F)F)s1)c1ccc(F)cc1 [Flufenacet] | 187.5 | – | – | –
O=C(O)CC(C(=O)O)S(=O)(=O)O (centres undefined) [Sulfosuccinic acid] | – | 124.5 | – | –
COP(=O)(OC)SCn1c(=O)oc2cc(Cl)cnc21 [Azamethiphos] | 171.2 | – | 161.5 | collision cross section in nitrogen [3]: 160.6 Å²
CCOC(=O)C1CC(=O)C(=C(O)C2CC2)C(=O)C1 (centres undefined) [Trinexapac-ethyl] | 167.5 | – | – | –
O=C(c1ccc(O)cc1O)c1ccc(O)cc1O [2,2',4,4'-Tetrahydroxybenzophenone] | – | 152.3 | – | –
Cc1cc(-n2nc3ccc(Cl)cc3n2)c(O)c(C(C)(C)C)c1 [Bumetrizole] | – | 183.2 | – | –
CCCCCCCCCCCC(=O)N(C)CC(=O)O [N-Dodecanoyl-N-methylglycine] | 175.7 | 170.1 | – | –
Cc1ccn2nc(S(=O)(=O)Nc3c(F)cccc3F)nc2n1 [Flumetsulam] | 176.7 | 172.5 | 167.7 | collision cross section in nitrogen [3]: 167.4 Å²
COc1c2ccoc2cc2oc(=O)ccc12 [5-Methoxypsoralen] | – | – | 140.3 | collision cross section in nitrogen [3]: 139.3 Å²
Cc1cccc(Nc2ccccc2C(=O)O)c1C [Mefenamic acid] | – | 160.9 | – | collision cross section in nitrogen [5]: 152.3 Å²
CCN1C(=O)c2ccccc2C1=O [N-Ethylphthalimide] | – | – | 135.4 | collision cross section in nitrogen [3]: 133.7 Å²
CC(C)(C)c1cc(Cc2cc(C(C)(C)C)c(O)c(C(C)(C)C)c2)cc(C(C)(C)C)c1O [4,4'-Methylenebis(2,6-di-t-butylphenol)] | – | 221.2 | – | –
CCCc1c(OCCCCc2nnn[nH]2)ccc(C(C)=O)c1O [Tomelukast] | 177.6 | – | – | –
Cn1c([N+](=O)[O-])cnc1COC(N)=O [Ronidazole] | 143.1 | – | – | –
CC(C)OC(=O)Nc1cccc(Cl)c1 [Chlorpropham] | – | 148.4 | – | –
CC(=O)c1c(O)c(C)c(O)c2c1OC1=CC(=O)C(C(C)=O)C(=O)C12C (centres undefined) [Usnic acid] | – | 177.1 | – | –
Cc1ccc(S(=O)(=O)Oc2ccc(N=Nc3ccc(-c4ccc(N=Nc5c(O)ccc6cc(S(=O)(=O)O)cc(S(=O)(=O)O)c56)c(C)c4)cc3C)cc2)cc1 [C.I. Acid Red 114] | – | 317.8 | 319.9 | –
CC(C)(C)C(O)/C(=C\c1ccc(Cl)cc1Cl)n1cncn1 (centres undefined) [Diniconazole] | – | – | 177.1 | collision cross section in nitrogen [3]: 177.9 Å²
CC(=O)Nc1ccc(O)cc1 [Acetaminophen] | – | 132.5 | – | –
Oc1ccc(Cl)cc1 [4-Chlorophenol] | – | 120.2 | – | –
CCC1COC(Cn2cncn2)(c2ccc(Cl)cc2Cl)O1 (centres undefined) [Etaconazole] | 189.3 | – | 174.1 | collision cross section in nitrogen [3]: 175.4 Å²
CC(C)(Oc1ccc(C2CC2(Cl)Cl)cc1)C(=O)O (centres undefined) [Ciprofibrate] | – | 171.9 | – | –
C#CCC1=C(C)C(OC(=O)C2C(C=C(C)C)C2(C)C)CC1=O (centres undefined) [Prallethrin] | 182.8 | – | – | –

SMILES | collision cross section in nitrogen [1] [Å²] | collision cross section in nitrogen [2] [Å²] | collision cross section in nitrogen [4] [Å²] | other results
Nc1ccc(Nc2ccccc2)cc1 [N-Phenyl-1,4-benzenediamine] | – | – | – | collision cross section in nitrogen [3]: 143.1 Å²
CCCCOC(=O)CCCCCCCCC(=O)OCCCC [Dibutyl decanedioate] | 193.5 | – | – | –
COc1cc(C(C)(C)C)c(O)c(C(C)(C)C)c1 [2,6-Di-tert-butyl-4-methoxyphenol] | – | 160.4 | – | collision cross section in nitrogen [5]: 157.2 Å²
Cc1cc(C)c(C(=O)O)c(C)c1 [2,4,6-Trimethylbenzoic acid] | – | 140.5 | – | –
Clc1ccc2[nH]nnc2c1 [5-Chlorobenzotriazole] | – | 123.2 | 128.5 | –
C=C(C)C(=O)OCCCCCCOC(=O)C(=C)C [1,6-Hexanediol dimethacrylate] | 167.3 | – | – | –
CC(=O)OC/C=C(\C)CCC=C(C)C [Geranyl acetate] | – | 151.5 | – | –
NCC1(Cc2noc(=O)[nH]2)CCCCC1 | – | 151.4 | 154 | –
CC(C)c1ccc2sc3ccccc3c(=O)c2c1 [2-Isopropylthioxanthone] | – | – | 156.4 | collision cross section in nitrogen [3]: 155.5 Å²
CCCCCCCCCCCCCCCC(=O)OCC [Ethyl hexadecanoate] | – | 177.9 | – | –
C#CCN1C(=O)COc2cc(F)c(N3C(=O)C4=C(CCCC4)C3=O)cc21 [Flumioxazin] | – | 184.5 | 183.7 | collision cross section in nitrogen [5]: 181 Å²
O=C1OC[C@H](Cc2cccc(O)c2)[C@H]1Cc1cccc(O)c1 [(-)-Enterolactone] | 178.2 | 165.3 | – | –
Nc1c(Cl)c(F)nc(OCC(=O)O)c1Cl [Fluroxypyr] | – | 141.3 | – | –
N[C@@H](Cc1cc(I)c(Oc2cc(I)c(O)c(I)c2)c(I)c1)C(=O)O [Levothyroxine] | – | – | 213.4 | –
c1ccc2c(c1)[nH]c1ccccc12 [Carbazole] | – | 132.9 | – | collision cross section in nitrogen [5]: 130.2 Å²
CCN(CC)c1ccc2c(-c3ccccc3C(=O)O)c3ccc(N(CC)CC)cc3[o+]c2c1 [Rhodamine B] | – | – | – | collision cross section in nitrogen (ion source: ESI, ion mode: Positive, ion type: [M]+ (permanent cation)): 218.1 Å²
CCOc1cc(C(C)(C)C)ccc1C1COC(c2c(F)cccc2F)=N1 (centres undefined) [Etoxazole] | 196 | – | 186.5 | collision cross section in nitrogen [3]: 186.3 Å²; collision cross section in nitrogen [5]: 186.5 Å²
C=CCS(=O)(=O)O [2-Propene-1-sulfonic acid, sodium salt] | – | 119.1 | – | –
CNC(=O)Oc1ccccc1C1OCCO1 [Dioxacarb] | 151.9 | – | – | –
CNC(=O)Oc1ccc(N(C)C)c(C)c1 [Aminocarb] | 155.8 | – | 152.2 | collision cross section in nitrogen [3]: 151.6 Å²
CNC(=N[N+](=O)[O-])NCC1CCOC1 (centres undefined) [1-Methyl-2-nitro-3-((tetrahydrofuran-3-yl)methyl)guanidine] | 150.6 | 148.7 | – | –
Cc1cc(Cl)ccc1O [4-Chloro-2-methylphenol] | – | 124.8 | – | –
Cc1cc(C)c(O)c(C(C)(C)C)c1 [6-tert-Butyl-2,4-xylenol] | – | 144.9 | – | –

SMILES | collision cross section in nitrogen [1] [Å²] | collision cross section in nitrogen [2] [Å²] | collision cross section in nitrogen [4] [Å²] | other results
CC(=O)S[C@H](C(=O)N[C@H]1Cc2ccccc2[C@H]2CCC[C@@H](C(=O)O)N2C1=O)C(C)C [Ilepatril] | 198.7 | 193.7 | 194.9 | collision cross section in nitrogen [3]: 195.4 Å²
Nc1ccc(S(=O)(=O)Nc2nccs2)cc1 [Sulfathiazole] | 167.5 | 154.3 | 153.9 | collision cross section in nitrogen [3]: 153.5 Å²
C=C(C)C(=O)OCCCCCCCCCCOC(=O)C(=C)C [1,10-Decanediol dimethacrylate] | 184.9 | – | – | –
c1cc(CCCc2ccncc2)ccn1 [4,4'-Propane-1,3-diyldipyridine] | – | – | 145.7 | collision cross section in nitrogen [3]: 146.1 Å²
CC(C)(O)c1cnn2c(-c3ccc(F)c(-c4c(F)cccc4C#N)c3)cnc2n1 | 209.2 | 198.6 | 196.4 | collision cross section in nitrogen [3]: 197.1 Å²
Cc1ncc(C[n+]2csc(CCO)c2C)c(N)n1 [Thiamine nitrate] | – | – | – | collision cross section in nitrogen (ion source: APCI, ion mode: Positive, ion type: [M]+ (permanent cation)): 161.5 Å²
CCOC(=O)CC(O)(CC(=O)OCC)C(=O)OCC [Triethyl citrate] | 169.1 | – | – | –
COCCOCCOCCOCCOC [2,5,8,11,14-Pentaoxapentadecane] | 147.3 | – | – | –
COc1cc(OC)nc(NC(=O)NS(=O)(=O)c2ncccc2OCC(F)(F)F)n1 [Trifloxysulfuron-sodium] | 194.5 | 190.2 | 192 | –
CCCCCCCC/C=C\CCCCCCCCN [(Z)-9-Octadecenylamine] | – | – | 180.2 | –
COc1cc(CNC(=O)CCCC/C=C/C(C)C)ccc1O [Capsaicin] | 173 | 177.8 | 182 | –
Oc1c(Cl)cc(Cl)c(Cl)c1Cl [2,3,4,6-Tetrachlorophenol] | – | 133.8 | – | –
CCOC(=O)CCN(SN(C)C(=O)Oc1cccc2c1OC(C)(C)C2)C(C)C [Benfuracarb] | 201.5 | – | 197.3 | collision cross section in nitrogen [3]: 197.3 Å²
O=c1cc[nH]c(=S)[nH]1 [Thiouracil] | – | 116.1 | – | –
NCCNCCNCCNCCN [Tetraethylenepentamine] | 148.5 | – | – | –
CCCCCCOC(=O)CC [Hexyl propanoate] | – | 146.3 | – | –
Cc1ncc([N+](=O)[O-])n1CCO [Metronidazole] | – | – | 134.3 | collision cross section in nitrogen [3]: 133.8 Å²
C#CC(C)N(C)C(=O)Nc1ccc(Cl)cc1 (centres undefined) [Buturon] | 166.1 | 154.6 | 153.7 | collision cross section in nitrogen [3]: 152.2 Å²
CCCCOC(=O)CC(O)(CC(=O)OCCCC)C(=O)OCCCC [Tributyl citrate] | 202.7 | – | – | –
CC(C)COC(=O)CC(C(=O)OCC(C)C)S(=O)(=O)O (centres undefined) [Sodium 1,4-diisobutyl sulfosuccinate] | – | 174.4 | – | –
O=C1c2ccc(O)c(O)c2C(=O)c2c(O)ccc(O)c21 [Quinalizarin] | – | 150.5 | – | –
